Here are results for three molecules from patent US12146004B2, “Polymyxin compounds and uses thereof” (priority 2014, dated 2024).

Holding throughout (type): cell-based
In one test the test system is Acinetobacter baumannii. As to the method:
(§1) To evaluate the potency and spectrum of the compounds, susceptibility testing was performed against up to nine strains of each of the Gram negative pathogens, Escherichia coli, Pseudomonas aeruginosa, Klebsiella pneumoniae and Acinetobacter baumannii.
(§2) The values in Table 2 are MIC (μg/mL) against strains of E. coli, K. pneumoniae, P. aeruginosa and A. baumanii, including strains which show elevated MICs to Polymyxin.
(§3) The values in Table 2A are MIC (μg/mL).
(§4) The in vitro activity of compounds 26 and C7 (FADDI-02) against resistant bacterial strains was compared. The resistant strains included including Escherichia coli, Pseudomonas aeruginosa, Klebsiella pneumoniae and Acinetobacter baumannii strains. The data is provided in Table 2C, where the strains are identified. The values in Table 2 are MIC (μg/mL).

The test system of the next test is Escherichia coli. As for the experimental part:
as §1, §2, §3, §4

The subject of another test is Klebsiella pneumoniae. As to the method:
as §1, §2, §3, §4

Another test relates to Pseudomonas aeruginosa. As to conditions: for MIC P. aeruginosa ATCC 27853: strain ATCC 27853. As to the method:
as §1, §2, §3, §4

Converted amounts (≈) assume the structure as drawn. Like-named read-outs stand apart in the source and are kept apart here.

As to “2-Aminomethyl-4- methyl pentanoyl polymyxin L-Thr-L-Dap- polymyxin [D-{4-(4- trifluoromethyl) phenyl} Phe]-6]heptapeptide. Isomer 1 [Example 19]”, the “MIC A. baumanii ATCC BAA-747” value with Acinetobacter baumannii (strain ATCC BAA-747) came to 1 µg/mL. For the same molecule, the “MIC E. coli 058” value in the test with Escherichia coli (strain 058) was determined as 16 µg/mL. Also, the “MIC E. coli ATCC 25922” value against Escherichia coli (strain ATCC 25922) came out at 1 µg/mL. Also, the “MIC K. pneumoniae 065” value in the test on Klebsiella pneumoniae (strain 065) came to 16 µg/mL. Besides, the “MIC K. pneumoniae ATCC 4352” value in the test on Klebsiella pneumoniae (strain ATCC 4352) is 1 µg/mL. Further, the “MIC P. aeruginosa ATCC 27853” value against Pseudomonas aeruginosa turned out to be 2 µg/mL.
Take `CC(C)C[C@@H]1NC(=O)[C@@H](CC2CCCCC2)NC(=O)[C@H](CCN)NC(=O)[C@@H](NC(=O)[C@H](CCN)NC(=O)[C@@H](NC(=O)CC(CN)CC2CCCCC2)[C@@H](C)O)CCNC(=O)[C@H]([C@@H](C)O)NC(=O)[C@H](CCN)NC(=O)[C@H](CCN)NC1=O` (single isomer, unassigned) [Example 72, 4-amino-3-(cyclohexylmethyl) butanoyl polymyxin [D-cyclohexylalanine]-6 nonapeptide]: the “MIC A. baumanii 053” value in the test with Acinetobacter baumannii (strain 053) was 64 µg/mL (≈ 55.6 µM). The “MIC A. baumanii 056” value against Acinetobacter baumannii (strain 056) amounted to 16 µg/mL (≈ 13.9 µM). Also, the “MIC A. baumanii ATCC BAA-747” value in the test with Acinetobacter baumannii (strain ATCC BAA-747) amounted to 0.25 µg/mL (≈ 0.217 µM). The “MIC A. baumanii NCTC 13424” value against Acinetobacter baumannii (strain NCTC 13424) was found to be 0.125 µg/mL (≈ 0.109 µM). Besides, the “MIC E. coli 058” value in the test with Escherichia coli (strain 058) amounted to 2 µg/mL (≈ 1.74 µM). For the same molecule, the “MIC E. coli 061” value in the test on Escherichia coli (strain 061) amounted to 8 µg/mL (≈ 6.95 µM). The “MIC E. coli ATCC 25922” value in the test on Escherichia coli (strain ATCC 25922) came to 0.25 µg/mL (≈ 0.217 µM). Also, the “MIC E. coli NCTC 9001” value with Escherichia coli (strain NCTC 9001) worked out at 0.25 µg/mL (≈ 0.217 µM). Moreover, in the test with Klebsiella pneumoniae (strain 063), the “MIC K. pneumoniae 063” value was 8 µg/mL (≈ 6.95 µM). In addition, in the test on Klebsiella pneumoniae (strain 065), the “MIC K. pneumoniae 065” value worked out at 0.5 µg/mL (≈ 0.435 µM). In the test with Klebsiella pneumoniae (strain ATCC 13882), the “MIC K. pneumoniae ATCC 13882” value came to 0.25 µg/mL (≈ 0.217 µM). Further, the “MIC P. aeruginosa 068” value in the test on Pseudomonas aeruginosa (strain 068) is 4 µg/mL (≈ 3.48 µM). Moreover, the “MIC P. aeruginosa 070” value against Pseudomonas aeruginosa (strain 070) came to 8 µg/mL (≈ 6.95 µM). Moreover, in the test on Pseudomonas aeruginosa, the “MIC P. aeruginosa ATCC 27853” value is 0.25 µg/mL (≈ 0.217 µM). The “MIC P. aeruginosa CCUG 59347” value against Pseudomonas aeruginosa (strain CCUG 59347) was 0.5 µg/mL (≈ 0.435 µM).
For `CCCCCCCCC1CNCC1C(=O)N[C@H](C(=O)N[C@@H](CCN)C(=O)N[C@H]1CCNC(=O)[C@H]([C@@H](C)O)NC(=O)[C@H](CCN)NC(=O)[C@H](CCN)NC(=O)[C@H](CC(C)C)NC(=O)[C@@H](Cc2ccc(-c3ccccc3)cc2)NC(=O)[C@H](CCN)NC1=O)C(C)O` (single isomer, unassigned; isomer 1) [Example 7, trans-4-octylpyrrolidine-3-carbonyl polymyxin [D-(4-phenyl)Phe]-6] nonapeptide. Isomer 1], in the test on Acinetobacter baumannii, the “MIC A. baumanii 053” value turned out to be 8 µg/mL (≈ 6.41 µM), the “MIC A. baumanii 056” value was found to be 4 µg/mL (≈ 3.2 µM) and the “MIC A. baumanii ATCC BAA-747” value is 1 µg/mL (≈ 0.801 µM). In the test with Escherichia coli, the “MIC E. coli 058” value stood at 2 µg/mL (≈ 1.6 µM), the “MIC E. coli 059” value worked out at 1 µg/mL (≈ 0.801 µM), the “MIC E. coli 060” value stood at 4 µg/mL (≈ 3.2 µM) and the “MIC E. coli 061” value came to 8 µg/mL (≈ 6.41 µM). For the same molecule, the “MIC E. coli ATCC 25922” value against Escherichia coli stood at 1 µg/mL (≈ 0.801 µM). Further, in the test with Klebsiella pneumoniae, the “MIC K. pneumoniae 062” value worked out at 16 µg/mL (≈ 12.8 µM), the “MIC K. pneumoniae 063” value came out at 32 µg/mL (≈ 25.6 µM), the “MIC K. pneumoniae 064” value is 8 µg/mL (≈ 6.41 µM) and the “MIC K. pneumoniae 065” value came out at 1 µg/mL (≈ 0.801 µM). Besides, in the test with Klebsiella pneumoniae, the “MIC K. pneumoniae 066” value amounted to 4 µg/mL (≈ 3.2 µM), the “MIC K. pneumoniae 067” value is 32 µg/mL (≈ 25.6 µM) and the “MIC K. pneumoniae ATCC 4352” value came out at 1 µg/mL (≈ 0.801 µM). In addition, in the test with Pseudomonas aeruginosa, the “MIC P. aeruginosa 068” value stood at 2 µg/mL (≈ 1.6 µM) and the “MIC P. aeruginosa 070” value is 2 µg/mL (≈ 1.6 µM).
